# Measurements from patent US4820717A, “Antimicrobial aromatic derivatives substituted by an (omega amino) alkanol group and compositions containing them” (priority 1985, dated 1989).
# Columns and labels:
# [1] = tested on: Staphylococcus aureus CNCM 53154; experiment: Bactericidal activity (MBC), strain 5; assay type: cell-based; settings: CNCM53154, 20 min, strain 5, 20 minutes of contact, read-out: Minimum bactericidal concentration (MBC)
# Text: (§1) The bactericidal activity of the products according to the invention has been analyzed on various strains by the method described hereafter:
# (§2) A bacterial inoculum is placed in contact with different dilutions of the product to be tested, and this for a limited period of time. At the end of contact, an aliquot part of the mixture bacterial suspension/product is deposited on the surface of an agar culture medium containing an agent neutralizing the antibacterial activity of the product. The bactericidal concentration retained is the smallest concentration of the product from which bacteria stop growing. Said concentration is expressed in μg/ml.
# (§3) The bacterial strains selected for the analysis are:
# 5--Staphylococcus aureus CNCM 53154.
# (§4) The second strain is supported on a Worgel Fergusson medium, the other strains being supported on Tryptic Soy Agar-Difco (TSA) commercialized by Difco.
# (§5) After a 24-hour culture period at 37° C., the microbial growth is collected by means of glass beads and of 10 ml of diluent containing 1 g of tryptone and 8.5 g of sodium chloride in 1000 ml of distilled water. The formed suspension is stirred and the percentage of light transmission at 620 nm is measured with a spectrophotometer:
# (§6) The bacterial inoculum corresponds to a 1/20th dilution of this bacterial suspension.
# (§7) Plates equipped with cupules receive different dilutions of the product to be analyzed. These dilutions are placed in contact with the different bacterial suspensions by means of a multiple-center inoculator. After 20 minutes of contact, aliquot parts are transferred by means of said inoculator on the surface of an agar medium (TSA) in Petri dishes, containing an activity-neutralizing agent, namely 20 g of lubrol W, 25 g of Tween 80 and 2.5 g of sodium thiosulfate in 1000 ml of TSA (Difco). The efficiency of the neutralizing agent is controlled for each product to be analyzed by depositing on the surface of the culture medium an aliquot part of the dilution of the product to be analyzed. After drying, the corresponding inoculum is deposited in the same place. An inoculum control is performed on an agar medium with or without neutralizing agent. Readings are taken after 48 hours of incubation at 37° C.
# [2] = tested on: Encapsulated klebsiella pneumoniae R030; experiment: Bactericidal activity (MBC), strain 2; assay type: cell-based; settings: 20 min, strain 2, 20 minutes of contact, read-out: Minimum bactericidal concentration (MBC)
# Text: as §1, §2, §3
# 2--Encapsulated klebsiella pneumoniae R030;
# as §4, §5, §6, §7
# Candida parakruzei 3918 = experiment: Antifungal activity (MFC), strain 3; assay type: cell-based; settings: 20 min; yeast strain 3; read-out: Minimum fongicidal concentration (MFC)
# Text: as §2, §7
# (§8) The antifungal activity of the products according to the invention was also determined with the aforedescribed method.
# (§9) The fungal strains selected for the analysis are:
# 3--Candida parakruzei 3918;
# (§10) These strains are supported on a Sabouraud Dextrose agar medium commercialized by Difco; the technique used is the same as that used in the analysis of the antibacterial activity. After 48 hours of culture at 37° C., the microbial growth is collected with glass beads and 5 ml of diluent containing 1 g of tryptone and 8.5 g of sodium chloride in 1000 ml of distilled water; 5 ml of the diluent are then added. […] A 1/100th dilution of this suspension, observed between slides under a microscope 40-lens, should show 10 cells per frame, this corresponding to 1,000,000 yeasts per ml.
# Candida tropicalis 3834 = experiment: Antifungal activity (MFC), strain 2; assay type: cell-based; settings: 20 min; yeast strain 2; read-out: Minimum fongicidal concentration (MFC)
# Text: as §2, §7, §8, §9
# 2--Candida tropicalis 3834;
# as §10
# guinea-pig skin [3] = experiment: Skin sensitization test in the guinea-pig; assay type: in vivo; settings: one week treatment after two weeks' rest
# Method: The tolerance of the products according to the invention was tested in the guinea-pig. The animals are shorn on both sides of the middle line of the back, the shearing being kept up every other day. Batches of 6 animals receive, on the shorn part, 0.2 ml of an aqueous or alcoholic solution of the product according to the invention. When these products are in alcoholic solution, one control batch of animals receives the alcohol on one side. The skin sensitization test is performed on the same animals after two weeks' rest. The treatment lasts one week, it is identical to the preceding one. The evaluation is based on the same criteria and on the same scale as used to determine the local tolerance.
# [4] = tested on: Escherichia Coli CNCM 54125; experiment: Bactericidal activity (MBC), strain 1; assay type: cell-based; settings: 20 min, strain 1, 20 minutes of contact, read-out: Minimum bactericidal concentration (MBC)
# Text: as §1, §2, §3
# 1--Escherichia Coli CNCM 54125;
# as §4, §5, §6, §7
# [5] = tested on: Candida albicans CNCM 1180; experiment: Antifungal activity (MFC), strain 1; assay type: cell-based; settings: 20 min; yeast strain 1; read-out: Minimum fongicidal concentration (MFC)
# Text: as §2, §7, §8, §9
# 1--Candida albicans CNCM 1180;
# as §10
# guinea-pig = experiment: Phototoxic or photoallergic effect on the guinea-pig; assay type: in vivo
# Text: The products according to the invention have also been tested for a phototoxic or photoallergic effect on the guina-pig. The technique used is that of J. Unkovic, G. Mazue and J. Girard, in "Sciences et Techniques de l'Animal de Laboratoire", 1983, 8 (3), 149-160. This is an adaptation of the techniques described by L. C. Harber et al., Arch. Dermatol., 1967, 96, 646-656 and L. J. Vinson et al., Arch. Dermatol., 1966, 17, 123-130.
# [6] = tested on: Pseudomonas aeruginosa CNCM A22; experiment: Bactericidal activity (MBC), strain 3; assay type: cell-based; settings: CNCMA22, 20 min, strain 3, 20 minutes of contact, read-out: Minimum bactericidal concentration (MBC)
# Text: as §1, §2, §3
# 3--Pseudomonas aeruginosa CNCM A22;
# as §4, §5, §6, §7
# [7] = tested on: Streptococcus faecalis CNCM 5855; experiment: Bactericidal activity (MBC), strain 4; assay type: cell-based; settings: Enterococcus faecalis, CNCM5855, 20 min; strain 4, 20 minutes of contact; read-out: Minimum bactericidal concentration (MBC)
# Text: as §1, §2, §3
# 4--Streptococcus faecalis CNCM 5855;
# as §4, §5, §6, §7
# guinea-pig skin [8] = experiment: Preliminary skin tolerance in the guinea-pig; assay type: in vivo; settings: 0.2 ml on shorn skin once a day, six days out of seven, three weeks
# Method: The tolerance of the products according to the invention was tested in the guinea-pig. The animals are shorn on both sides of the middle line of the back, the shearing being kept up every other day. Batches of 6 animals receive, on the shorn part, 0.2 ml of an aqueous or alcoholic solution of the product according to the invention. When these products are in alcoholic solution, one control batch of animals receives the alcohol on one side.
# To study the preliminary skin tolerance, the treatment is applied once a day, six days out of seven, for three weeks. The observations made of the skin are concerned with the presence of erythema, skin eruptions or hyperkeratosis, the intensity of which is graduated according to a preset scale.
# [9] = tested on: Torulopsis glabrata 072023; experiment: Antifungal activity (MFC), strain 4; assay type: cell-based; settings: 20 min; yeast strain 4; read-out: Minimum fongicidal concentration (MFC)
# Text: as §2, §7, §8, §9, §10
# [10] = Acute toxicity by oral route in mice; settings: mouse, in vivo, per os, male CD1 mice, 14 days observation
# Method: Acute toxicity was tested by oral route in mice. This test was carried out with male mice of CD1 strain, obtained from the Charles Reever breeding farm. Each batch was composed of 5 animals of body weight varying between 24 and 30 g kept in the same cage. The animals were kept fasting for 6 hours before the treatment. For every test, the product, placed in suspension in a 10% solution of gum arabic, was administered by forcible feeding with an oesophageal probe. Food was then served to the animals 4 hours after the forcible feeding and the animals were kept under observation for a period of 14 days after the administration. During that period, the death rate is recorded for each batch of animals used in the experiment and, wherever possible, the LD50 is determined by the method of J. T. Litchfield and F. Wilcoxon, J. Pharmacol. 1949, 95, 99-113.
# The results are given in mg of substance tested per kg of body weight. They are compiled in Table III below.
SMILES,MBC [1],MBC [2],MFC (Candida parakruzei 3918),MFC (Candida tropicalis 3834),products found to have a sensibilizing effect (guinea-pig skin [3]),MBC [4],MFC [5],products found to have a phototoxic or photoallergic effect (guinea-pig),MBC [6],MBC [7],products found to have a bad tolerance (guinea-pig skin [8]),MFC [9],LD50 at 336 h [10]
OCC(CCN1CCCCCC1)c1ccc2ccccc2c1 (stereo not drawn) [SR 43 270 A],1000 µg/mL,1000 µg/mL,1000 µg/mL,1000 µg/mL,None,1000 µg/mL,500 µg/mL,None,1000 µg/mL,2000 µg/mL,None,5000 µg/mL,–
CC(C)N(CCC(CO)c1cccc2ccccc12)Cc1ccccc1 (stereo not drawn) [SR 43 292 A],300 µg/mL,300 µg/mL,1000 µg/mL,1000 µg/mL,None,300 µg/mL,1000 µg/mL,None,300 µg/mL,300 µg/mL,None,2000 µg/mL,500 to 750 mg/kg
CC1CCN(CCCCCCC(CO)c2cccc3ccccc23)CC1 (stereo not drawn) [SR 43 293 A],200 µg/mL,200 µg/mL,500 µg/mL,200 µg/mL,None,200 µg/mL,500 µg/mL,None,200 µg/mL,200 µg/mL,None,1000 µg/mL,≤ 250 mg/kg
OCC(CCN1CCC(Cc2ccccc2)CC1)c1cccc2ccccc12 (stereo not drawn) [SR 43 383 A],100 µg/mL,100 µg/mL,100 µg/mL,100 µg/mL,None,100 µg/mL,100 µg/mL,None,100 µg/mL,100 µg/mL,None,500 µg/mL,1180 mg/kg
CN(C)CCCCCCC(CO)c1cccc2ccccc12 (stereo not drawn) [SR 43 727 A],200 µg/mL,50 µg/mL,–,–,None,20 µg/mL,–,None,50 µg/mL,20 µg/mL,None,–,580 mg/kg
